Experimental data taken from US11154522B2, “Compositions and methods for treating acne vulgaris” (priority 2016, dated 2021).
Where two headings read alike, the source gives them in different places. Values belong to the compound of their own block, whether it stands above or below them.

Experiment: Delivery of succinic acid to epidermis and dermis in presence of salicylic acid, Franz diffusion cells, different skin sample (Example 2)
Experimental: Skin from a single donor was stored frozen at −20° C. until needed. The skin was removed from the freezer, allowed to equilibrate to room temperature, and then cut to ˜2 cm×2 cm pieces before testing. FDCs with a 3.3 ml receiver volume and 0.55 cm^2 diffusional area were used. De-aerated isotonic phosphate buffered saline solution at pH 7.4 (PBS) containing 0.01% NaN3 was used as a solvent system for the receptor well medium (“Receptor Fluid”). Receptor wells were filled with the Receptor Fluid. The upper flange of the FDC receptor well was coated with vacuum grease to ensure a complete seal. Pieces of skin were mounted on the receptor cells, the conventional donor wells applied, and the assembly clamped together with uniform pressure using a pinch clamp. After assembly of the FDC, the skin was allowed to hydrate for 20 minutes in contact with the receptor fluid. Any FDCs that evidenced any leakage during this period were discarded. The integrity and quality of the skin was tested prior to application of the test formulations through measurement of the transdermal flux of tritiated water. Skin pieces evidencing an excessively high tritiated water flux were discarded and the tritiated water fluxes of accepted skin pieces was used to guide the distribution of formulation samples over the skin piece set. After removal of the tritiated water samples from the donor wells, the clamp and donor wells were removed. The skin was tapped dry with a KimWipe® and the receptor well solutions was replenished with fresh receptor well medium. Six replicates of each of the formulations were examined, in a batch of 36 FDC's; each test formulation was applied at a quasi-infinite dose of 20 μL cm^2 on skin maintained at 32° C. throughout the experiment. The Receptor Fluid was stirred with a magnetic stir bar throughout. A sample was abstracted from each receptor well at each of 4, 8 and 20 h, the receptor well being replenished with fresh Receptor Fluid. The concentration of succinic acid in each receptor well sample was assayed by a verified LC-MS analytical method. At the end of the experiment (20 h), residual formulation was removed from the skin exterior with a pipette. The FDCs were then be disassembled and the skin washed twice with EtOH-Water 50-50 and wiped dry with a KimWipe®. The successive topmost layers of the stratum corneum were removed by three (3) times applying cellophane tape to the skin and then pulling off the tape. Tape strippings were discarded, the material present in those peripheral layers being considered absorbed only superficially. The epidermal and dermal layers were separated, using mild heating if required. The epidermal and dermal sections were placed into 4 ml glass vials. DMSO was used as an extraction solvent (“Extraction Solvent”) for succinic acid from epidermal and dermal tissue. Two ml of the Extraction Solvent was added to each vial and the vials allowed to incubate for 24 h. At the end of the extraction period, aliquots of the Extraction Solvent were drawn, filtered and analyzed by LC-MS.
A topical formulation was prepared that contained 2% succinic acid, 1% salicylic acid (acne API), 15% ethanol, 15% propylene glycol, 3% Brij 30 and 15% of dimethyl isosorbide. The delivery of succinic to epidermis and dermis was tested as described in Example 1 in an independent experiment, using a different skin sample.

Compound: CCOCCOCCO [Transcutol P]
enhancement of delivery of succinic acid by other penetration enhancing molecules: did not result in enhanced delivery of succinic acid

Compound: Polysorbate 20
enhancement of delivery of succinic acid by other penetration enhancing molecules (present in the formulation instead of Brij30 and dimethyl isosorbide): did not result in enhanced delivery of succinic acid

Compound: Capric tryiglyceride GTCC
enhancement of delivery of succinic acid by other penetration enhancing molecules: did not result in enhanced delivery of succinic acid

succinic acid dose delivered to epidermis and dermis (human, 22 h, 2 %, pH 7.4): 33.22% | fold lower amount delivered in absence vs presence of Brij30 and dimethyl isosorbide (human, 22 h, pH 7.4): 4.4 fold | succinic acid dose delivered to epidermis and dermis (human, 22 h, pH 7.4): 7.51%
Compound: O=C(O)CCC(=O)O [succinic acid]

Compound: Polysorbate 80
enhancement of delivery of succinic acid by other penetration enhancing molecules: did not result in enhanced delivery of succinic acid
